One test has as its system M. tuberculosis H37Rv. Briefly: microbe, parasite or virus in culture. It is filed as cell-based. The settings on record: Mycobacterium tuberculosis, 216 h, 7 days + 48 h resazurin, read-out: MIC H37Rv. Background: Alamar Blue is a resazurin reagent that responds to reducing activity.
The test system of test [1] is M. tuberculosis H37Rv in infected RAW 264.7 macrophages. Description: Intracellular activity in M. tuberculosis-infected macrophages (CFU). It is filed as cell-based, Mycobacterium tuberculosis. To be noted: 5 μM; for decrease in CFU counts compared to early control / decrease in CFU counts compared to untreated late control: 5 days; for Mean log CFU/well ± SEM: 5 days of incubation.

The target of test [2] is T1, MtInhA (Mycobacterium tuberculosis, UniProt P9WGR1).
T1 construct: made in house
T1 sequence (P9WGR1 whole entry, looked up): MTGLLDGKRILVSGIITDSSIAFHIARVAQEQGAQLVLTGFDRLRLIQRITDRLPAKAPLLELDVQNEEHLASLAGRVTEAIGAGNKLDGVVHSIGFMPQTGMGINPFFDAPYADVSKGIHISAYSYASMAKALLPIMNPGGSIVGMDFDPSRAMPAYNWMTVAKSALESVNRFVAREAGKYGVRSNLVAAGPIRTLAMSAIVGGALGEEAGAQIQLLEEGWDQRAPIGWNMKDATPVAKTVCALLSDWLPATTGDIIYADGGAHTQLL
Description: MtInhA enzyme inhibition by steady-state kinetics (NADH oxidation at 340 nm). The settings on record: for inhibitory activity towards MtInhA: IC50 screening; for mode of inhibition with respect to NADH / mode of inhibition with respect to DD-CoA: Lineweaver-Burk plot; for IC50: NADH 60 μM, DD-CoA 45 μM, 25 °C, Pipes pH 7.0, read-out: IC50; for Ki: EI complex; for Ki DD-CoA Kii / Ki NADH Kii: ESI complex. It is filed as biochemical. Here is the method:
In order to assess the relative potency of the compounds, inhibition studies were performed by steady-state kinetic studies using a UV-2550 UV/Visible spectrophotometer (Shimadzu^©), monitoring the NADH oxidation at 340 nm (εβ-NADH = […]), in the forward direction. Experiments were performed at 25 °C, in 100 mM Pipes pH 7.0 and were started with the addition of the 2.2 μM MtInhA to a total reaction volume of 500 μL, and monitoring the change in absorbance for 1 min. […] This is needed as IC50 and classical competitive, non-competitive and uncompetitive inhibition modes follow a rapid equilibrium process. Accordingly, MtInhA (2.2 μM) was pre-incubated with inhibitor (10 μM), aliquots were taken at different times and added to the reaction mixture containing NADH (60 μM) and DD-CoA (45 μM), and initial velocity measurements were plotted as a function of time of pre-incubation[6]. Control experiments were carried out pre-incubating MtInhA (2.2 μM) with DMSO (5%) in the absence of inhibitors, and initial velocity measured as a function of time of pre-incubation[6].
The IC50 value, which defines the concentration of inhibitor required to […], was calculated for each compound. The maximal rate for the enzyme reaction was determined in the absence of inhibitor, in the presence of fixed non-saturating concentration of NADH (60 μM ≅ Km) and DD-CoA (45 μM ≅ Km)[10][11][14]. The reaction velocity was analyzed as the percentage of inhibition as a function of inhibitor concentration and data were fitted to Eq 1.
The most promising compounds were further evaluated to assess the inhibition profile and to determine the inhibition constant (Ki). Initial rates were measured as a function of NADH concentration (10–160 μM) at fixed non-saturating DD-CoA concentration (45 μM) and fixed-varied inhibitor concentrations (0.5–120 μM). The Ki values towards NADH were calculated using the uncompetitive equation (Eq. 2) for compounds Labio_6 and Labio_16, in which [I] is the inhibitor concentration, [S] is the substrate concentration, Km and Vmax are, respectively, the Michaelis-Menten constant and maximum velocity, and Kii is the overall inhibition constant for the ESI complex. The Ki of Labio_03 was determined previously.
For compounds Labio_2, Labio_11, Labio_15 and Labio_17, the Ki values with respect to NADH were calculated using Eq. 3, which describes a non-competitive inhibition, where [I] is the inhibitor concentration, [S] is the substrate concentration, Km and Vmax are, respectively, the Michaelis-Menten constant and maximum velocity, Kii is the overall inhibition constant for the ESI complex and Kis is the overall inhibition constant for the EI complex.
Inhibition studies were also carried out in the presence of fixed non-saturating concentration of NADH (60 μM) and fixed-varied inhibitor concentrations (0.5–120 μM), when DD-CoA was the variable substrate (15–135 μM). For compounds Labio_2, Labio_6, and Labio_16, the inhibition constants for the DD-CoA substrate were determined using Eq. 3 for the non-competitive mode of inhibition. For compounds Labio_11, Labio_15 and Labio_17, the Ki for this substrate were calculated from data fitting to the equation for competitive inhibition (Eq. 4), in which [I] is the inhibitor concentration, [S] is the substrate concentration, Km and Vmax are, respectively, the Michaelis-Menten constant and maximum velocity, and Kis is the overall inhibition constant for the EI complex.

The target in test [3] is T2, MtInhA:NADH binary complex (Mycobacterium tuberculosis, UniProt P9WGR1).
T2 construct: made in house
T2 sequence (P9WGR1 whole entry, looked up, one chain of several): as the sequence (P9WGR1 whole entry, looked up) above
Briefly: biochemical. It is filed as binding. To be noted: for Kd: 25 °C (298.15 K); for ΔG: estimated from ΔH and ΔS (Eq. 7); for ΔH / ΔS: van't Hoff analysis, 15–30 °C.

Test [4] addresses T1, MtInhA. Also noted: method as in PMID 23889525. The settings on record: ESI complex; determined previously ref 12; cited from earlier work.
Where [5] appears, read: varied DD-CoA 15–135 μM, fixed NADH 60 μM, read-out: Ki DD-CoA Kis.
Setting [6] is: varied DD-CoA 15–135 μM, fixed NADH 60 μM.
Setting [7] is: varied NADH 10–160 μM, fixed DD-CoA 45 μM, read-out: Ki NADH Kis.
The mark [8] stands for this setting: varied NADH 10–160 μM, fixed DD-CoA 45 μM.

Consider 14 compounds from paper PMC5402281, “Functional, thermodynamics, structural and biological studies of in silico-identified inhibitors of Mycobacterium tuberculosis enoyl-ACP(CoA) reductase enzyme” (Scientific Reports, 2017).

Where two headings read alike, the source gives them in different places. Marks after values point to notes of the source that are not given here. A value given as a limit tells only on which side of the number the result lay.

For `NNC(=O)c1ccncc1` [INH, Isoniazid], in the test on M. tuberculosis H37Rv, the MIC turned out to be 0.31 µg/mL. In addition, in test [1], the “decrease in CFU counts compared to early control” value is on record as 1.7 log10, the “decrease in CFU counts compared to untreated late control” value was determined as 2.3 log10 and the “Mean log CFU/well ± SEM” value was 2.4 ± 0.1***^+++ log CFU/well.

`O=C(Cc1csc(-c2ccccn2)n1)Nc1ccccc1Oc1ccccc1` [Labio_1]: at MtInhA [2], the “inhibitory activity towards MtInhA” value is “no inhibitory activity”. Besides, the MIC in the test on M. tuberculosis H37Rv was greater than 10 µg/mL.

Regarding `Cc1nc([C@H](C)NC(=O)c2ccc3oc(Cc4ccccc4F)nc3c2)cs1` [Labio_2], at MtInhA [2] (fixed DD-CoA 45 μM), the “mode of inhibition with respect to NADH” value is reported as “non-competitive”. At MtInhA [2] (fixed NADH 60 μM), the “mode of inhibition with respect to DD-CoA” value was “non-competitive”. Further, the IC50 on MtInhA [2] is 18 ± 2 µM. The Ki on MtInhA [2] (setting [5]) was 0.7 ± 0.4 µM. Besides, the “Ki DD-CoA Kii” value on MtInhA [2] (setting [6]) came to 0.7 ± 0.2 µM. At MtInhA [2] (setting [7]), the Ki came out at 2.3 ± 0.8 µM. The “Ki NADH Kii” value at MtInhA [2] (setting [8]) was determined as 2.2 ± 0.6 µM. For the same compound, in test [3], the affinity, expressed as Kd, was 2.2 ± 0.2 µM; the ΔG was -7.7 ± 0.7 kcal/mol; the ΔH is -37.7 ± 2.7 kcal/mol; the ΔS is reported as −100.5 ± 9.2 cal.mol^−1.K^−1. In addition, the MIC in the test on M. tuberculosis H37Rv is greater than 100 µg/mL.

For the compound `CCCOc1ccc(-c2nnc(NC(=O)Nc3ccccc3C)s2)cc1` [Labio_3], at MtInhA [2] (fixed DD-CoA 45 μM), the “mode of inhibition with respect to NADH” value was “uncompetitive”. Also, the “mode of inhibition with respect to DD-CoA” value at MtInhA [2] (fixed NADH 60 μM) is recorded as “uncompetitive”. Also, the IC50 on MtInhA [2] came to 19 ± 2 µM. In test [3], the Kd came to 4.4 ± 0.4 µM, the ΔG was -7.4 ± 0.7 kcal/mol, the ΔH is -27.8 ± 1.8 kcal/mol and the ΔS was −68.5 ± 6.3 cal.mol^−1.K^−1. Besides, the MIC in the test with M. tuberculosis H37Rv is 11.2 µg/mL. Also, at MtInhA [4], the “Ki DD-CoA Kii” value is 20 ± 2 µM and the “Ki NADH Kii” value was 24 ± 3 µM.

Regarding `COc1ccc(CCC(=O)Nc2nn3cc(-c4ccccc4)nc3s2)cc1` [Labio_6], the “mode of inhibition with respect to NADH” value on MtInhA [2] (fixed DD-CoA 45 μM) is on record as “uncompetitive”. In addition, the “mode of inhibition with respect to DD-CoA” value at MtInhA [2] (fixed NADH 60 μM) was “non-competitive”. The IC50 on MtInhA [2] is 9.8 ± 0.9 µM. In addition, the Ki at MtInhA [2] (setting [5]) came out at 0.7 ± 0.2 µM. For the same compound, the “Ki DD-CoA Kii” value on MtInhA [2] (setting [6]) was 0.7 ± 0.1 µM. Besides, at MtInhA [2] (setting [8]), the “Ki NADH Kii” value came to 1.8 ± 0.2 µM. For the same compound, in test [3], the affinity, expressed as Kd, was 3.1 ± 0.4 µM; the ΔG was -7.6 ± 0.7 kcal/mol; the ΔH was -44.7 ± 3.6 kcal/mol; the ΔS is recorded as −124.2 ± 12.3 cal.mol^−1.K^−1. For the same compound, the MIC with M. tuberculosis H37Rv was greater than 10 µg/mL.

Take `Cc1cccc(NC(=O)/C(C#N)=C/c2ccc(OCc3ccccc3)cc2)n1` [Labio_7]: the “inhibitory activity towards MtInhA” value at MtInhA [2] is on record as “no inhibitory activity”. Also, the MIC with M. tuberculosis H37Rv was greater than 10 µg/mL.

Turning to `Cc1ccc(N2C[C@@H](c3nc(-c4ccc(OC(C)C)cc4)no3)CC2=O)cc1C` [Labio_8], the “inhibitory activity towards MtInhA” value against MtInhA [2] is on record as “no inhibitory activity”. Besides, in the test on M. tuberculosis H37Rv, the MIC was greater than 10 µg/mL.

Regarding `Cc1cc(NC(=O)Cc2csc(-c3ccsc3)n2)ccc1Br` [Labio_9], the “inhibitory activity towards MtInhA” value against MtInhA [2] is reported as “no inhibitory activity”. The MIC in the test on M. tuberculosis H37Rv is greater than 10 µg/mL.

As to `COc1ccc(-c2n[nH]cc2/C=N\NC(=O)c2cc(C)nc3c(C)cccc23)cc1` [Labio_11], at MtInhA [2] (fixed DD-CoA 45 μM), the “mode of inhibition with respect to NADH” value was “non-competitive”. Moreover, at MtInhA [2] (fixed NADH 60 μM), the “mode of inhibition with respect to DD-CoA” value is “competitive”. For the same compound, on MtInhA [2], the IC50 was found to be 87 ± 3 µM. For the same compound, at MtInhA [2] (setting [5]), the Ki came out at 27 ± 3 µM. Besides, the Ki at MtInhA [2] (setting [7]) was 44 ± 14 µM. In addition, the “Ki NADH Kii” value at MtInhA [2] (setting [8]) is 41 ± 6 µM. In test [3], binding was put at a Kd of 17.9 ± 1.1 µM, the ΔG was -6.5 ± 0.9 kcal/mol, the ΔH was -18.7 ± 1.7 kcal/mol and the ΔS is listed as −40.9 ± 5.9 cal.mol^−1.K^−1. In addition, in the test with M. tuberculosis H37Rv, the MIC was greater than 100 µg/mL.

Turning to `O=C(CNC(=O)c1ccc2c(c1)OCO2)Nc1ccc(Nc2ccccc2)cc1` [Labio_12], the “inhibitory activity towards MtInhA” value against MtInhA [2] is “no inhibitory activity”. Further, in the test with M. tuberculosis H37Rv, the MIC was greater than 100 µg/mL.

With `Cc1ccc(N2C[C@@H](c3nc(-c4ccc(OC(C)C)cc4)no3)CC2=O)c(C)c1` [Labio_13], the “inhibitory activity towards MtInhA” value at MtInhA [2] was “no inhibitory activity”. Also, the MIC with M. tuberculosis H37Rv was greater than 10 µg/mL.

Consider `CCN(CC)Cc1cc(-c2ccnc3cc(Cl)ccc23)ccc1O` [Labio_15], for which the “mode of inhibition with respect to NADH” value on MtInhA [2] (fixed DD-CoA 45 μM) is recorded as “non-competitive”. The “mode of inhibition with respect to DD-CoA” value at MtInhA [2] (fixed NADH 60 μM) is “competitive”. The IC50 at MtInhA [2] turned out to be 83 ± 2 µM. The Ki on MtInhA [2] (setting [5]) turned out to be 74 ± 8 µM. Moreover, at MtInhA [2] (setting [7]), the Ki was 110 ± 26 µM. On MtInhA [2] (setting [8]), the “Ki NADH Kii” value worked out at 110 ± 11 µM. Besides, in test [3], the Kd was 29.4 ± 2.1 µM, the ΔG was -6.2 ± 1.5 kcal/mol, the ΔH was -9.6 ± 0.8 kcal/mol and the ΔS was −11.5 ± 2.8 cal.mol^−1.K^−1. Besides, in the test with M. tuberculosis H37Rv, the MIC came out at 25 µg/mL.

As to `COc1cccc(-c2cccc(NC(=O)C3CCN(CC=C(C)C)CC3)c2)c1` [Labio_20], on MtInhA [2], the “inhibitory activity towards MtInhA” value is “no inhibitory activity”. The MIC with M. tuberculosis H37Rv was 23.8 µg/mL.

For the compound `CO[C@H]1/C=C/O[C@@]2(C)Oc3c(C)c(O)c4c(O)c(c(/C=N/N5CCN(C)CC5)c(O)c4c3C2=O)NC(=O)/C(C)=C\C=C\[C@H](C)[C@H](O)[C@@H](C)[C@@H](O)[C@@H](C)[C@H](OC(C)=O)[C@@H]1C` [Rifampin], in test [1], the “decrease in CFU counts compared to early control” value was 1.7 log10, the “decrease in CFU counts compared to untreated late control” value is 2.3 log10 and the “Mean log CFU/well ± SEM” value was 2.4 ± 0.1***^+++ log CFU/well.

For orientation: IC50 means the concentration that gives 50% inhibition. The term Ki denotes the equilibrium dissociation constant of an inhibitor or competing ligand from its target. One may read the Kd as the constant that tells how readily two partners part at equilibrium. Higher therefore signals weaker binding.
